What is called IC50 is the point on the concentration scale where inhibition reaches its midpoint.

Molecules are shown by their SMILES.

Consider 18 compounds from patent publication US8552024B2, “Azacyclic compounds” (Hoffman-La Roche Inc., priority 2011, dated 2013).

The target in the assay is T1, human HSL (Homo sapiens, UniProt Q05469).
T1 construct: overlapping PCR to generate a full length human HSL ORF with a 3′-His6 tag; made in house; host or cells: High 5 insect cells (baculovirus, pFast-BAC)
T1 sequence (Q05469 1-1076): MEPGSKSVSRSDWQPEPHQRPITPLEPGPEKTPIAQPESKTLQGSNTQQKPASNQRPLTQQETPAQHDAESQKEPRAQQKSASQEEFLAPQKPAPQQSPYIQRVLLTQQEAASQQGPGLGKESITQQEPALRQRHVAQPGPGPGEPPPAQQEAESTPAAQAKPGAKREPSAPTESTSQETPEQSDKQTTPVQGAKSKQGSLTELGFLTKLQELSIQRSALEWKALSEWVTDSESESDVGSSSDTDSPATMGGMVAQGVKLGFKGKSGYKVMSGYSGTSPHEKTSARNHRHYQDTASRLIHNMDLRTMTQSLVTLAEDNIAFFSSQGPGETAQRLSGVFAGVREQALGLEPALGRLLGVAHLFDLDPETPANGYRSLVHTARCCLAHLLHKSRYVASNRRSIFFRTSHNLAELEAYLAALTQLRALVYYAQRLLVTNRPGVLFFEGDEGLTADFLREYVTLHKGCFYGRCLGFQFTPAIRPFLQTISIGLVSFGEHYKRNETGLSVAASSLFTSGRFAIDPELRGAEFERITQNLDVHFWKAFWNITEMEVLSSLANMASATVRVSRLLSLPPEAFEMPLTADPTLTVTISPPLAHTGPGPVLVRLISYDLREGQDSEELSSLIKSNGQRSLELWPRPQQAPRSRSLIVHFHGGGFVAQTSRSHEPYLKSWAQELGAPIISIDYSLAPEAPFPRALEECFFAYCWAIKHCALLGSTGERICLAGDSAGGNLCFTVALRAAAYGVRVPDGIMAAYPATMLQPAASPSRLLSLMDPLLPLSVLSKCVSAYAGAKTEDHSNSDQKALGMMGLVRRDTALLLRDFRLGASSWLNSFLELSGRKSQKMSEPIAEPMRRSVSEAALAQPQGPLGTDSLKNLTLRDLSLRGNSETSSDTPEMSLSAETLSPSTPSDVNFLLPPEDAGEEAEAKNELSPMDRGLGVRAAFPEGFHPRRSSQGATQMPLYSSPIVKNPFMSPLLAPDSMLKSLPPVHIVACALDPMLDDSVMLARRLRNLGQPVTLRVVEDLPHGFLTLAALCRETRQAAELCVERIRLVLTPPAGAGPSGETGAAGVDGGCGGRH
Kind of assay: Human Hormone-Sensitive Lipase (HSL) enzyme inhibition assay (colorimetric, DMPT substrate). It is filed as biochemical. The following applies: human full length HSL-His6; substrate 2,3-dimercapto-1-propanol tributyrate; 37° C., 20 minutes; absorbance at 405 nm; read-out: HSL hum IC50. The protocol: Production of Human full length Hormone Sensitive Lipase-His^6:
1) Cloning: cDNA was prepared from commercial human brain polyA+ RNA and used as a template in overlapping PCR to generate a full length human HSL ORF with a 3′-His6 tag. This full length insert was cloned into the pFast-BAC vector and the DNA-sequence of several single clones was verified. DNA from a correct full length clone with the 3′His6 tag was used to transform the E. coli strain DH10BAC. Resulting bacmid DNA was used to generate a titered baculovirus stock for protein generation. The sequence of the encoded HSL conforms to Swissprot entry Q05469, with the additional C-terminal His6-tag. 2) Protein purification: Culture: 5.5 L, High 5 cells expressing human full length HSL-His^6, 48 hr., containing 25 μM E-64. Cell count: 1.78×10^10 cells/ml, 90% viable. Cells were thawed. On ice, cells were suspended in Base Buffer containing 10% glycerol, 25 mM Tris-Cl, 300 mM NaCl, 10 mM imidazole, 10 mM 2-mercaptoethanol, 2 μg pepstatin/ml, 2 μg leupeptin/ml, 2 μg antipain/ml, pH 8.0 at 4° C. in a final volume of 475 ml with 3.75×10^7 cells/ml. […] was done at 3×30 sec., Lubrol PX was added to 0.2% final concentration followed by stirring for 15 min. at 4° C. and centrifugation at 25 k×g, 60 min., 4° C. Soluble proteins were mixed with 60 ml of pre-washed and equilibrated Ni-NTA Agarose (Qiagen 30210) followed by tumbling end-over-end, 45 min., 4° C., centrifugation 1000 rpm 5 min and letting resin settle 5 min. Supernatant was removed, the resin washed in the centrifuge vessel using 5 volumes of Base Buffer containing 0.2% Lubrol PX. Centrifugation was done again, then the supernatant discarded. The resin was poured onto a 0.8 μm membrane in a disposable filter unit (Nalge 450-0080), and washed with 5 volumes of Base Buffer containing 0.2% Lubrol PX. It was then washed with 30 volumes of Base Buffer containing 60 mM imidazole pH 7.5 at 4° C. The protein was eluated with 5 volumes of 25 mM Tris-Cl, 300 mM NaCl, 200 mM imidazole, 10 mM 2-mercaptoethanol, pH 7.5 at 4° C. by tumbling resin with buffer end-over-end, 30 min., 4° C. The resin was captured on a 0.2 μm membrane disposable filter unit (Millipore SCGP U02 RE) and the eluate collected in the reservoir. The eluate was concentrated using a 30 k MWCO centrifugal filter device (Sartorius Vivascience Vivacell 100, VC1022), to 20 ml. It was then dialyzed overnight at 4° C., two times against 2 L of 10% glycerol, 25 mM Tris-Cl, 300 mM NaCl, 0.2 mM EDTA, 0.2 mM DTT, pH 7.5 at 4° C. The protein was filtered using a 0.22 μm disposable filter unit (Millipore SCGP00525). The protein concentration was calculated from absorbance at 280 nm, using 280=0.67 cm-1 mg-1. Yield was 235 mg, total. The protein was stored at −80° C.
Human Hormone-Sensitive Lipase (HSL) Enzyme Inhibition Assay:
HSL enzyme activity was measured by a colorimetric assay using 2,3-dimercapto-1-propanol tributyrate (Aldrich, St. Louis, Mo.) as a substrate. Typically, 1.5 mM 2,3-dimercapto-1-propanol tributyrate (DMPT) in 100 mM MOPS, pH 7.2, 0.2 mg/ml fatty acid-free BSA was prepared by sonication at 4° C. to homogenous suspension. Test compounds (2 mM stock in DMSO) were diluted 3 fold in series in DMSO. Compound solutions were diluted 24 fold in 1.5 mM DMPT containing solution and 18 ul per well was added to 384-well microplates (Corning Costar). Twelve microliters per well of human HSL (15 ug/ml) was added and the reaction mixture was incubated at 37° C. for 20 minutes. Six microliters of 12 mM dithio-bis-(2-nitrobenzoic acid) (DTNB) in DMSO plus 1.2% SDS and 0.6% Triton X-100 were added and the mixture was incubated at room temperature for 15 minutes. Product production was monitored by reading absorbance at 405 nm on an Envision Reader (PerkinElmer Life and Analytical Sciences, Shelton, Conn.).
As to `O=C1N(c2ccc(OC(F)(F)F)cc2)CCC12CCN(c1ccc(C(F)(F)F)cc1F)CC2` [Example 1, 8-(2-Fluoro-4-trifluoromethyl-phenyl)-2-(4-trifluoromethoxy-phenyl)-2,8-diaza-spiro[4.5]decan-1-one], the IC50 is 0.92 µM.

With `O=C1N(c2ccc(OC(F)(F)F)cc2)CCC12CCN(c1cc(C(F)(F)F)ccc1F)CC2` [Example 2, 8-(2-Fluoro-5-trifluoromethyl-phenyl)-2-(4-trifluoromethoxy-phenyl)-2,8-diaza-spiro[4.5]decan-1-one], the half-inhibitory concentration (IC50) is 0.55 µM.

`O=C1N(c2ccc(OC(F)(F)F)cc2)CCC12CCN(c1ccccc1F)CC2` [Example 3, 8-(2-Fluoro-phenyl)-2-(4-trifluoromethoxy-phenyl)-2,8-diaza-spiro[4.5]decan-1-one]: the IC50 worked out at 0.31 µM.

`O=C1N(c2ccc(OC(F)(F)F)cc2)CCC12CCN(c1cccc(OC(F)(F)F)c1)CC2` [Example 4, 8-(3-Trifluoromethoxy-phenyl)-2-(4-trifluoromethoxy-phenyl)-2,8-diaza-spiro[4.5]decan-1-one]: the IC50 came to 0.63 µM.

With `O=C1N(c2ccc(OC(F)(F)F)cc2)CCC12CCN(c1ccccc1Cl)CC2` [Example 5, 8-(2-Chloro-phenyl)-2-(4-trifluoromethoxy-phenyl)-2,8-diaza-spiro[4.5]decan-1-one], the IC50 worked out at 0.71 µM.

Regarding `O=C1N(c2ccc(OC(F)(F)F)cc2)CCC12CCN(c1c(F)cccc1F)CC2` [Example 6, 8-(2,6-Difluoro-phenyl)-2-(4-trifluoromethoxy-phenyl)-2,8-diaza-spiro[4.5]decan-1-one], the IC50 worked out at 0.96 µM.

With `COc1ccccc1N1CCC2(CC1)CCN(c1ccc(OC(F)(F)F)cc1)C2=O` [Example 7, 8-(2-Methoxy-phenyl)-2-(4-trifluoromethoxy-phenyl)-2,8-diaza-spiro[4.5]decan-1-one], the IC50 came out at 0.11 µM.

Turning to `COc1ccc(C)cc1N1CCC2(CC1)CCN(c1ccc(OC(F)(F)F)cc1)C2=O` [Example 8, 8-(2-Methoxy-5-methyl-phenyl)-2-(4-trifluoromethoxy-phenyl)-2,8-diaza-spiro[4.5]decan-1-one], the IC50 is 0.1 µM.

As to `COc1ncccc1N1CCC2(CC1)CCN(c1ccc(OC(F)(F)F)cc1)C2=O` [Example 9, 8-(2-Methoxy-pyridin-3-yl)-2-(4-trifluoromethoxy-phenyl)-2,8-diaza-spiro[4.5]decan-1-one], the IC50 came to 0.11 µM.

Regarding `Cc1cnc(F)c(N2CCC3(CC2)CCN(c2ccc(OC(F)(F)F)cc2)C3=O)c1` [Example 10, 8-(2-fluoro-5-methylpyridin-3-yl)-2-(4-(trifluoromethoxy)phenyl)-2,8-diazaspiro[4.5]decan-1-one], the 50% inhibitory concentration (IC50) turned out to be 0.24 µM.

In the case of `Cn1cccc(N2CCC3(CC2)CCN(c2ccc(OC(F)(F)F)cc2)C3=O)c1=O` [Example 11, 8-(1-methyl-2-oxo-1,2-dihydropyridin-3-yl)-2-(4-(trifluoromethoxy)phenyl)-2,8-diazaspiro[4.5]decan-1-one], the IC50 amounted to 0.02 µM.

In the case of `CCCn1cccc(N2CCC3(CC2)CCN(c2ccc(OC(F)(F)F)cc2)C3=O)c1=O` [Example 12, 8-(2-Oxo-1-propyl-1,2-dihydro-pyridin-3-yl)-2-(4-trifluoromethoxy-phenyl)-2,8-diaza-spiro[4.5]decan-1-one], the IC50 was 0.03 µM.

Take `O=C1N(c2ccc(OC(F)(F)F)cc2)CCC12CCN(c1ccccc1O)CC2` [Example 13, 8-(2-Hydroxy-phenyl)-2-(4-trifluoromethoxy-phenyl)-2,8-diaza-spiro[4.5]decan-1-one]: the IC50 came out at 0.05 µM.

For the compound `Cc1ccc(O)c(N2CCC3(CC2)CCN(c2ccc(OC(F)(F)F)cc2)C3=O)c1` [Example 14, 8-(2-Hydroxy-5-methyl-phenyl)-2-(4-trifluoromethoxy-phenyl)-2,8-diaza-spiro[4.5]decan-1-one], the half-maximal inhibitory concentration (IC50) worked out at 0.06 µM.

On to `O=C1N(c2ccc(OC(F)(F)F)cc2)CCC12CCN(c1cccnc1O)CC2` [Example 15, 8-(2-Hydroxy-pyridin-3-yl)-2-(4-trifluoromethoxy-phenyl)-2,8-diaza-spiro[4.5]decan-1-one], for which the half-inhibitory concentration (IC50) turned out to be 0.04 µM.

Consider `O=C1N(c2ccc(OC(F)(F)F)cc2)CCC12CCN(c1cccc(OCc3ccccc3)n1)CC2` [Example 16, 8-(6-Benzyloxy-pyridin-2-yl)-2-(4-trifluoromethoxy-phenyl)-2,8-diaza-spiro[4.5]decan-1-one], for which the IC50 was 0.9 µM.

Turning to `O=C1N(c2ccc(OC(F)(F)F)cc2)CCC12CCN(c1cccc(O)n1)CC2` [Example 17, 8-(6-Hydroxy-pyridin-2-yl)-2-(4-trifluoromethoxy-phenyl)-2,8-diaza-spiro[4.5]decan-1-one], the IC50 came out at 0.25 µM.

With `C[C@H](Oc1ccc(N2CCC3(CCN(c4cccn(C)c4=O)CC3)C2=O)cc1)C(F)(F)F` [Example 18, 8-(1-Methyl-2-oxo-1,2-dihydro-pyridin-3-yl)-2-[4-((S)-2,2,2-trifluoro-1-methyl-ethoxy)-phenyl]-2,8-diaza-spiro[4.5]decan-1-one], the half-maximal inhibitory concentration (IC50) was 0.02 µM.
